Patent publication US20230141603A1, “BENZODIAZEPINE DERIVATIVES AS GABA A GAMMA1 PAM” (Hoffmann-La Roche Inc., priority 2021, published 2023)

Target: T1, h-GABAA α5β2γ1 (Homo sapiens, UniProt P31644+Q8N1C3)
T1 construct: expressed in transfected cells; host or cells: HEK293F cells (ThermoFisher R79007), membranes
T1 sequence (P31644 32-462): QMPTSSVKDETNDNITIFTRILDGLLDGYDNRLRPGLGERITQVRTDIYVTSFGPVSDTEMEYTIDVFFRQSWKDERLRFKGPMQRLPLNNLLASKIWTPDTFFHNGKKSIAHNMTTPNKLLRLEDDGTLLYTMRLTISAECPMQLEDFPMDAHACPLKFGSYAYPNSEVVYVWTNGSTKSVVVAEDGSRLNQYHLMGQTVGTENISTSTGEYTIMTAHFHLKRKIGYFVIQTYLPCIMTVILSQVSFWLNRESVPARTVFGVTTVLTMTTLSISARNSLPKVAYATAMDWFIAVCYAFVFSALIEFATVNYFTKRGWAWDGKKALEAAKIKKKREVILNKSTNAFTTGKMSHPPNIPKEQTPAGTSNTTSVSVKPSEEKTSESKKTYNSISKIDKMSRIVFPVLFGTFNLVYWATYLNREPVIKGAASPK
T1 sequence (P47870 25-512 partner limits assumed): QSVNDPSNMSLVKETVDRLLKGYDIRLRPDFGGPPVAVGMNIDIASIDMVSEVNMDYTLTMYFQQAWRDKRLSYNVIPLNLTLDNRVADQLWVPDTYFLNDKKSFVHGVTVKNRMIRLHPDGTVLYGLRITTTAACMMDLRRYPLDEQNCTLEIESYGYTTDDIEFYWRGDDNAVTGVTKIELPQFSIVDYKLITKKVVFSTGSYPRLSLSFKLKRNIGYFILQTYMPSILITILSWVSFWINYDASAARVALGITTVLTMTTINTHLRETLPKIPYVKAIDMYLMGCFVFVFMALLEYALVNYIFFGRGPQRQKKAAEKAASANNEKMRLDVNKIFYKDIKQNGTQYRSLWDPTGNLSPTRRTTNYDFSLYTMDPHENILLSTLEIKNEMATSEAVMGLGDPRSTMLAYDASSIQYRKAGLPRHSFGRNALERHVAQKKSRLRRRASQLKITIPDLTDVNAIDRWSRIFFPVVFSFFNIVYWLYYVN
T1 sequence (Q8N1C3 36-465): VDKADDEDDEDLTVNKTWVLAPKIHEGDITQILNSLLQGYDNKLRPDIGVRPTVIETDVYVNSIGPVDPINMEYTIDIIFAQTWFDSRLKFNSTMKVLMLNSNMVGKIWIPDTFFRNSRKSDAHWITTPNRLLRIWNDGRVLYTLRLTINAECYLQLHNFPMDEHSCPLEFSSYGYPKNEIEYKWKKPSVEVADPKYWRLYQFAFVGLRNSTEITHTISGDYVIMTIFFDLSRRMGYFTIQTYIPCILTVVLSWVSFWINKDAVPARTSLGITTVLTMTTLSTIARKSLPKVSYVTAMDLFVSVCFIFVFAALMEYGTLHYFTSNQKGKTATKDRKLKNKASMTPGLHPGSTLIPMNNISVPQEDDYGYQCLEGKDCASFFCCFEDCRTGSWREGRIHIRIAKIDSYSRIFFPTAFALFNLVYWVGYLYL
Test: Radioligand binding assay, [3H]RO7239181 competition, HEK293F membranes
How it was run: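 Competition for [3H]RO7239181 (1.5 nM) binding to membranes from HEK293F cells transiently expressing human α5β2γ1 receptors. Compounds tested at 0.3–10000 nM; nonspecific binding defined with 10 μM RO7235136. Incubation 1 h at 4 °C in 10 mM KPi/100 mM KCl, pH 7.4; filtration, scintillation counting; Ki as mean of two determinations.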

| SMILES | Ki |
| --- | --- |
| CO[C@H]1C[C@H](c2nnc3n2-c2ccc(Cl)c(Cl)c2C(c2c(F)cccc2F)=NC3)C1 [Example 91, trans-7,8-dichloro-6-(2,6-difluorophenyl)-1-(3-methoxycyclobutyl)-4H-[1,2,4]triazolo[4,3-a][1,4]benzodiazepine] | 3.1 nM |
| Fc1cccc(F)c1C1=NCc2nnc(-c3cccnn3)n2-c2ccc(Br)c(Cl)c21 [Example 104, 8-bromo-7-chloro-6-(2,6-difluorophenyl)-1-pyridazin-3-yl-4H-[1,2,4]triazolo[4,3-a][1,4]benzodiazepine] | 0.6 nM |
